Marks after values point to notes of the source that are not given here.
Tested on: rats
Assay: 28-day repeated dose study in rats with mass spectrometry-based plasma metabolite profiling (GC-MS, LC-MS, SPE-LC-MS); treatment ratios versus control
Conditions: plasma; for Adrenaline (Epinephrine), treatment ratio versus control / Glucosamine, treatment ratio versus control / Histamine, treatment ratio versus control / Mannosamine, treatment ratio versus control: Table 2b glomerular-tubular defect
[1] = female rats, day 14, high dose, Table 2a glomerular-tubular defect
[2] = female rats, day 28, high dose, Table 2a glomerular-tubular defect
[3] = male rats, day 7, high dose, Table 2c glomerular-tubular defect
[4] = male rats, day 7, high dose, Table 2d glomerular-tubular defect
[5] = male rats, day 14, high dose, Table 2c glomerular-tubular defect
[6] = male rats, day 14, high dose, Table 2d glomerular-tubular defect
[7] = male rats, day 28, high dose, Table 2c glomerular-tubular defect
[8] = male rats, day 28, high dose, Table 2d glomerular-tubular defect
[9] = female rats, day 14, high dose, Table 3a tubular defect
[10] = female rats, day 14, high dose, Table 3b tubular defect
[11] = female rats, day 28, high dose, Table 3a tubular defect
[12] = female rats, day 28, high dose, Table 3b tubular defect
[13] = male rats, day 14, high dose, Table 3c tubular defect
[14] = male rats, day 14, high dose, Table 3d tubular defect
[15] = male rats, day 28, high dose, Table 3c tubular defect
[16] = male rats, day 28, high dose, Table 3d tubular defect
[17] = male rats, day 7, high dose, Table 7a interstitial nephritis
[18] = male rats, day 7, high dose, Table 7b interstitial nephritis
[19] = male rats, day 14, high dose, Table 7a interstitial nephritis
[20] = male rats, day 14, high dose, Table 7b interstitial nephritis
[21] = male rats, day 28, high dose, Table 7a interstitial nephritis
[22] = male rats, day 28, high dose, Table 7b interstitial nephritis

Method: A group of each 5 male and female rats was dosed once daily with the indicated compounds (see Table 9, below for compounds, applied doses and administration details) over 28 days.
Each dose group in the studies consisted of five rats per sex. Additional groups of each 5 male and female animals served as controls. Before starting the treatment period, animals, which were 62-64 days old when supplied, were acclimatized to the housing and environmental conditions for 7 days. All animals of the animal population were kept under the same constant temperature (20-24±3° C.) and the same constant humidity (30-70%). The animals of the animal population were fed ad libitum. The food to be used was essentially free of chemical or microbial contaminants. Drinking water was also offered ad libitum. […] The illumination period was 12 hours light followed by 12 hours darkness (12 hours light, from 6:00 to 18:00, and 12 hours darkness, from 18:00 to 6:00). […] The test substances (compounds in Table 9 were dosed and administered as described in the table above.
In the morning of day 7, 14, and 28, blood was taken from the retroorbital venous plexus from fasted anaesthetized animals. From each animal, 1 ml of blood was collected with EDTA as anticoagulant. The samples were centrifuged for generation of plasma. All plasma samples were covered with a N2 atmosphere and then stored at −80° C. until analysis.
For mass spectrometry-based metabolite profiling analyses plasma samples were extracted and a polar and a non-polar (lipid) fraction was obtained. For GC-MS analysis, the non-polar fraction was treated with methanol under acidic conditions to yield the fatty acid methyl esters. Both fractions were further derivatised with O-methyl-hydroxyamine hydrochloride and pyridine to convert Oxo-groups to O-methyloximes and subsequently with a silylating agent before analysis. In LC-MS analysis, both fractions were reconstituted in appropriate solvent mixtures. HPLC was performed by gradient elution on reversed phase separation columns.
Steroids and their metabolites were measured by online SPE-LC-MS (Solid phase extraction-LC-MS).
Following comprehensive analytical validation steps, the data for each analyte were normalized against data from pool samples. These samples were run in parallel through the whole process to account for process variability. The significance of treatment group values specific for sex, treatment duration and metabolite was determined by comparing means of the treated groups to the means of the respective untreated control groups using WELCH-test and quantified with treatment ratios versus control and p-values.

SMILES: C[C@H](CS)C(=O)N1CCC[C@H]1C(=O)O [Captopril]
- 3-Hydroxyindole, treatment ratio versus control [1]: 1.35
- 3-Indoxylsulfate, treatment ratio versus control [1]: 1.2
- Creatine, treatment ratio versus control [1]: 1.18*
- Creatinine, treatment ratio versus control [1]: 1.06
- Elaidic acid (C18:trans[9]1), treatment ratio versus control [1]: 1.18
- Lysophosphatidylcholine (C20:4), treatment ratio versus control [1]: 1.04
- Xylitol, treatment ratio versus control [1]: 1.17
- Adrenaline (Epinephrine), treatment ratio versus control (female rats, day 14, high dose): 1.27
- Glucosamine, treatment ratio versus control (female rats, day 14, high dose): 0.4 *
- Histamine, treatment ratio versus control (female rats, day 14, high dose): 0.93
- Mannosamine, treatment ratio versus control (female rats, day 14, high dose): 0.69 *
- 3-Hydroxyindole, treatment ratio versus control [2]: 1.21 *
- 3-Indoxylsulfate, treatment ratio versus control [2]: 1.21 *
- Creatine, treatment ratio versus control [2]: 1.33 *
- Creatinine, treatment ratio versus control [2]: 1.93 *
- Elaidic acid (C18:trans[9]1), treatment ratio versus control [2]: 1.22 *
- Lysophosphatidylcholine (C20:4), treatment ratio versus control [2]: 1.24 *
- Xylitol, treatment ratio versus control [2]: 1.31 *
- Adrenaline (Epinephrine), treatment ratio versus control (female rats, day 28, high dose): 0.28 *
- Glucosamine, treatment ratio versus control (female rats, day 28, high dose): 1.06^
- Histamine, treatment ratio versus control (female rats, day 28, high dose): 0.81 *
- Mannosamine, treatment ratio versus control (female rats, day 28, high dose): 1.04^
- Creatine, treatment ratio versus control [3]: 1.16 *
- Creatinine, treatment ratio versus control [3]: 1.32^
- Glycerol-3-phosphate, polar fraction, treatment ratio versus control [3]: 1.28 *
- Lysophosphatidylcholine (C18:2), treatment ratio versus control [3]: 1.07 *
- Threonic acid, treatment ratio versus control [3]: 1.37 *
- 4-Hydroxy-3-methoxyphenylglycol (HMPG), treatment ratio versus control [4]: 1.07^
- Cysteine, treatment ratio versus control [4]: 0.59 *
- Isopalmitic acid (C16:0), treatment ratio versus control [4]: 0.78 *
- Metanephrine, treatment ratio versus control [4]: 0.81 *
- Normetanephrine, treatment ratio versus control [4]: 0.9
- Creatine, treatment ratio versus control [5]: 1.06 *
- Creatinine, treatment ratio versus control [5]: 1.12 *
- Glycerol-3-phosphate, polar fraction, treatment ratio versus control [5]: 0.97^
- Lysophosphatidylcholine (C18:2), treatment ratio versus control [5]: 1.2 *
- Threonic acid, treatment ratio versus control [5]: 1.27 *
- 4-Hydroxy-3-methoxyphenylglycol (HMPG), treatment ratio versus control [6]: 0.91 *
- Cysteine, treatment ratio versus control [6]: 0.77 *
- Isopalmitic acid (C16:0), treatment ratio versus control [6]: 0.64 *
- Metanephrine, treatment ratio versus control [6]: 0.7 *
- Normetanephrine, treatment ratio versus control [6]: 0.89 *
- Creatine, treatment ratio versus control [7]: 1.31
- Creatinine, treatment ratio versus control [7]: 1.05
- Glycerol-3-phosphate, polar fraction, treatment ratio versus control [7]: 1.29 *
- Lysophosphatidylcholine (C18:2), treatment ratio versus control [7]: 1.09
- Threonic acid, treatment ratio versus control [7]: 1.14 *
- 4-Hydroxy-3-methoxyphenylglycol (HMPG), treatment ratio versus control [8]: 0.86 *
- Cysteine, treatment ratio versus control [8]: 0.72 *
- Isopalmitic acid (C16:0), treatment ratio versus control [8]: 0.83^
- Metanephrine, treatment ratio versus control [8]: 0.76 *
- Normetanephrine, treatment ratio versus control [8]: 0.73 *

SMILES: N.N.O=C([O-])C1(C(=O)[O-])CCC1.[Pt+2] [Carboplatin]
- Creatine, treatment ratio versus control [9]: 1.22 *
- Creatinine, treatment ratio versus control [9]: 0.85
- Galactose, lipid fraction, treatment ratio versus control [9]: 1.17 *
- Glucuronic acid, treatment ratio versus control [9]: 1.36
- Glycerol-3-phosphate, polar fraction, treatment ratio versus control [9]: 1.66 *
- Glycine, treatment ratio versus control [9]: 1.08
- Histidine, treatment ratio versus control [9]: 1.03
- Isoleucine, treatment ratio versus control [9]: 1.09 *
- Leucine, treatment ratio versus control [9]: 1.13 *
- Lysophosphatidylcholine (C18:1), treatment ratio versus control [9]: 0.98
- Phosphatidylcholine No 02, treatment ratio versus control [9]: 1.07 *
- TAG No 05, treatment ratio versus control [9]: 1.9 *
- Threonic acid, treatment ratio versus control [9]: 1.14
- Threonine, treatment ratio versus control [9]: 0.99
- Uracil, treatment ratio versus control [9]: 1.07
- Valine, treatment ratio versus control [9]: 1.07 *
- Xylitol, treatment ratio versus control [9]: 0.83
- Cysteine, treatment ratio versus control [10]: 0.83 *
- Glycerol, polar fraction, treatment ratio versus control [10]: 0.88^
- Hippuric acid, treatment ratio versus control [10]: 0.59^
- Indole-3-acetic acid, treatment ratio versus control [10]: 0.38 *
- Spermidine, treatment ratio versus control [10]: 0.95^
- Sucrose, treatment ratio versus control [10]: 0.67 *
- Creatine, treatment ratio versus control [11]: 1.41 *
- Creatinine, treatment ratio versus control [11]: 1.59 *
- Galactose, lipid fraction, treatment ratio versus control [11]: 0.84^
- Glucuronic acid, treatment ratio versus control [11]: 1.24 *
- Glycerol-3-phosphate, polar fraction, treatment ratio versus control [11]: 2.2 *
- Glycine, treatment ratio versus control [11]: 1.17 *
- Histidine, treatment ratio versus control [11]: 1.3 *
- Isoleucine, treatment ratio versus control [11]: 1.35 *
- Leucine, treatment ratio versus control [11]: 1.38 *
- Lysophosphatidylcholine (C18:1), treatment ratio versus control [11]: 1.12 *
- Phosphatidylcholine No 02, treatment ratio versus control [11]: 0.97^
- TAG No 05, treatment ratio versus control [11]: 1.27 *
- Threonic acid, treatment ratio versus control [11]: 1.23 *
- Threonine, treatment ratio versus control [11]: 1.24 *
- Uracil, treatment ratio versus control [11]: 1.37 *
- Valine, treatment ratio versus control [11]: 1.25 *
- Xylitol, treatment ratio versus control [11]: 1.56 *
- Cysteine, treatment ratio versus control [12]: 0.67
- Glycerol, polar fraction, treatment ratio versus control [12]: 0.78 *
- Hippuric acid, treatment ratio versus control [12]: 0.3 *
- Indole-3-acetic acid, treatment ratio versus control [12]: 0.65
- Spermidine, treatment ratio versus control [12]: 0.69 *
- Sucrose, treatment ratio versus control [12]: 0.61
- Allantoin, treatment ratio versus control [13]: 1.4
- Creatine, treatment ratio versus control [13]: 1.32 *
- Glycerol-3-phosphate, polar fraction, treatment ratio versus control [13]: 1.59 *
- Histidine, treatment ratio versus control [13]: 1.02
- Kynurenic acid, treatment ratio versus control [13]: 1.21 *
- Nervonic acid (C24:cis[15]1), treatment ratio versus control [13]: 1.02
- Pantothenic acid, treatment ratio versus control [13]: 1.17
- Pseudouridine, treatment ratio versus control [13]: 1.33 *
- Taurine, treatment ratio versus control [13]: 1.18 *
- Urea, treatment ratio versus control [13]: 1.47 *
- 16-Methylheptadecanoic acid, treatment ratio versus control [14]: 0.74 *
- Linolenic acid (C18:cis[9,12,15]3), treatment ratio versus control [14]: 0.75
- Phosphatidylcholine No 02, treatment ratio versus control [14]: 0.87 *
- Phosphatidylcholine No 04, treatment ratio versus control [14]: 0.74 *
- TAG (C18:1, C18:2), treatment ratio versus control [14]: 0.79 *
- Allantoin, treatment ratio versus control [15]: 1.24 *
- Creatine, treatment ratio versus control [15]: 1.42 *
- Glycerol-3-phosphate, polar fraction, treatment ratio versus control [15]: 1.61 *
- Histidine, treatment ratio versus control [15]: 1.22 *
- Kynurenic acid, treatment ratio versus control [15]: 1.7
- Nervonic acid (C24:cis[15]1), treatment ratio versus control [15]: 1.51 *
- Pantothenic acid, treatment ratio versus control [15]: 1.47 *
- Pseudouridine, treatment ratio versus control [15]: 1.11 *
- Taurine, treatment ratio versus control [15]: 1.54 *
- Urea, treatment ratio versus control [15]: 1.08
- 16-Methylheptadecanoic acid, treatment ratio versus control [16]: 0.51 *
- Linolenic acid (C18:cis[9,12,15]3), treatment ratio versus control [16]: 0.7 *
- Phosphatidylcholine No 02, treatment ratio versus control [16]: 0.91 *
- Phosphatidylcholine No 04, treatment ratio versus control [16]: 0.78
- TAG (C18:1, C18:2), treatment ratio versus control [16]: 0.62 *

SMILES: CCc1ccccc1 [Ethyl benzene, Ethylbenzene]
- Creatine, treatment ratio versus control [17]: 1.4 *
- Creatinine, treatment ratio versus control [17]: 1.41 *
- Eicosanoic acid (C20:0), treatment ratio versus control [17]: 1.41 *
- Glucuronic acid, treatment ratio versus control [17]: 1.08^
- Lignoceric acid (C24:0), treatment ratio versus control [17]: 1.31 *
- Phosphatidylcholine (C18:2, C20:4), treatment ratio versus control [17]: 1.05 *
- Serine, treatment ratio versus control [17]: 1.12 *
- Sphingomyelin (d18:1, C16:0), treatment ratio versus control [17]: 1.69 *
- Threonine, treatment ratio versus control [17]: 1.31 *
- myo-Inositol-2-phosphate, treatment ratio versus control [17]: 1.39 *
- Glycerol, polar fraction, treatment ratio versus control [18]: 0.98^
- Isopalmitic acid (C16:0), treatment ratio versus control [18]: 0.55 *
- Kynurenic acid, treatment ratio versus control [18]: 0.71 *
- Creatine, treatment ratio versus control [19]: 1.35 *
- Creatinine, treatment ratio versus control [19]: 1.58 *
- Eicosanoic acid (C20:0), treatment ratio versus control [19]: 1.3 *
- Glucuronic acid, treatment ratio versus control [19]: 1.17 *
- Lignoceric acid (C24:0), treatment ratio versus control [19]: 1.55 *
- Phosphatidylcholine (C18:2, C20:4), treatment ratio versus control [19]: 1.06 *
- Serine, treatment ratio versus control [19]: 1.5 *
- Sphingomyelin (d18:1, C16:0), treatment ratio versus control [19]: 1.5 *
- Threonine, treatment ratio versus control [19]: 1.72 *
- myo-Inositol-2-phosphate, treatment ratio versus control [19]: 0.88^
- Glycerol, polar fraction, treatment ratio versus control [20]: 0.87^
- Isopalmitic acid (C16:0), treatment ratio versus control [20]: 0.57 *
- Kynurenic acid, treatment ratio versus control [20]: 0.83 *
- Creatine, treatment ratio versus control [21]: 1.34 *
- Creatinine, treatment ratio versus control [21]: 1.33 *
- Eicosanoic acid (C20:0), treatment ratio versus control [21]: 1.76 *
- Glucuronic acid, treatment ratio versus control [21]: 1.26 *
- Lignoceric acid (C24:0), treatment ratio versus control [21]: 1.23 *
- Phosphatidylcholine (C18:2, C20:4), treatment ratio versus control [21]: 1.05^
- Serine, treatment ratio versus control [21]: 1.54 *
- Sphingomyelin (d18:1, C16:0), treatment ratio versus control [21]: 1.48 *
- Threonine, treatment ratio versus control [21]: 2.44 *
- myo-Inositol-2-phosphate, treatment ratio versus control [21]: 1.3 *
- Glycerol, polar fraction, treatment ratio versus control [22]: 0.75 *
- Isopalmitic acid (C16:0), treatment ratio versus control [22]: 0.59 *
- Kynurenic acid, treatment ratio versus control [22]: 0.8 *

Reference: patent US20150011423A1, “MEANS AND METHODS FOR ASSESSING KIDNEY TOXICITY” (BASF SE, priority 2011, published 2015)
